Experimental data from ChEMBL document CHEMBL5625167, “In vitro bioevaluation and docking study of dihydrosphingosine and ethambutol analogues against sensitive and multi-drug resistant Mycobacterium tuberculosis” (Eur J Med Chem, 2023).
Converted amounts (≈) assume the structure as drawn. “And” between values parts separate entries of the source, which are not always exact repeats. Equal values may be shown once. The source made the active and inactive calls. The rule behind the calls is not given here.

What was measured:
[1] = system: Mycobacterium tuberculosis; experiment: Synergistic antimycobacterial activity against Mycobacterium tuberculosis H37Rv ATCC 25618 assessed as fractional inhibitory concentration index incubated for 7 days by resazurin dye based two-dimensional micro dilution checkerboard assay in presence of rifampicin; type: functional; conditions: time 7 day
[2] = system: Mycolicibacterium smegmatis; experiment: Antimycobacterial activity against Mycobacterium smegmatis ATCC607 assessed as reduction in bacterial viability at 16 uM by time kill assay; type: functional, organism-based; conditions: time 0-72 hrs, TDE = time-dependent effect
[3] = system: Mycobacterium tuberculosis; experiment: Additive antimycobacterial activity against Mycobacterium tuberculosis H37Rv ATCC 25618 incubated for 7 days by resazurin dye based two-dimensional micro dilution checkerboard assay in presence of isoniazid; type: functional; conditions: time 7 day
[4] = system: Mycobacterium tuberculosis; experiment: Additive antimycobacterial activity against Mycobacterium tuberculosis H37Rv ATCC 25618 incubated for 7 days by resazurin dye based two-dimensional micro dilution checkerboard assay in presence of amikacin; type: functional; conditions: time 7 day
[5] = system: Mycolicibacterium smegmatis; experiment: Antimycobacterial activity against Mycobacterium smegmatis ATCC607 infected in mouse J774 cells assessed as log reduction in intracellular bacterial count at MIC in presence of rifampicin measured for 24 hrs; type: functional
[6] = system: Mycobacterium tuberculosis; experiment: Additive antimycobacterial activity against Mycobacterium tuberculosis H37Rv ATCC 25618 assessed as fractional inhibitory concentration index incubated for 7 days by resazurin dye based two-dimensional micro dilution checkerboard assay in presence of ethambutol; type: functional; conditions: time 7 day
[7] = system: Mycobacterium tuberculosis; experiment: Antimycobacterial activity against Mycobacterium tuberculosis H37Rv ATCC 25618 assessed as induction of morphological changes by measuring disruption and discontinuity of the bacterial envelope at MIC incubated for 96 hrs by TEM analysis; type: functional, organism-based
[8] = system: Mycobacterium tuberculosis; experiment: Synergistic antimycobacterial activity against Mycobacterium tuberculosis H37Rv ATCC 25618 incubated for 7 days by resazurin dye based two-dimensional micro dilution checkerboard assay in presence of rifampicin; type: functional; conditions: time 7 day
[9] = system: Mycolicibacterium smegmatis; experiment: Antimycobacterial activity against Mycobacterium smegmatis ATCC607 infected in mouse J774 cells assessed as reduction in intracellular bacterial count at MIC in presence of rifampicin measured for 24 hrs relative to control; type: functional; set-up: scale not given: the % may be the effect or the level left
[10] = system: Mycolicibacterium smegmatis; experiment: Antimycobacterial activity against Mycobacterium smegmatis ATCC607 incubated for 24 hrs by resazurin dye based broth microdilution method; type: functional
[11] = system: Mycobacterium tuberculosis; experiment: Additive antimycobacterial activity against Mycobacterium tuberculosis H37Rv ATCC 25618 assessed as fractional inhibitory concentration index incubated for 7 days by resazurin dye based two-dimensional micro dilution checkerboard assay in presence of isoniazid; type: functional; conditions: time 7 day
[12] = system: Staphylococcus aureus; experiment: Antibacterial activity against Staphylococcus aureus ATCC 25923 incubated for 18 hrs by resazurin dye based broth microdilution method; type: functional
[13] = system: Mycobacterium tuberculosis; experiment: Additive antimycobacterial activity against Mycobacterium tuberculosis H37Rv ATCC 25618 assessed as fractional inhibitory concentration index incubated for 7 days by resazurin dye based two-dimensional micro dilution checkerboard assay in presence of levofloxacin; type: functional; conditions: time 7 day
[14] = system: Mycobacterium tuberculosis; experiment: Antimycobacterial activity against Mycobacterium tuberculosis H37Rv ATCC 25618 assessed as induction of morphological changes by measuring increase in lipid inclusions at MIC incubated for 96 hrs by TEM analysis; type: functional, organism-based
[15] = system: Mycobacterium tuberculosis; experiment: Potency index, ratio of ethambutol MIC to test compound MIC for antimycobacterial activity against isoniazid, rifampicin, ethambutol and pyrazinamide sensitive Mycobacterium tuberculosis H37Rv ATCC 25618 assessed as inhibition of bacterial growth incubated for 7 days by resazurin dye based colorimetric method analysis; type: functional; conditions: time 7 day
[16] = system: Mycolicibacterium smegmatis; experiment: Antimycobacterial activity against Mycobacterium smegmatis ATCC607 infected in mouse J774 cells assessed as log reduction in intracellular bacterial count at 2 times MIC measured after 24 hrs relative to control; type: functional
[17] = system: Klebsiella pneumoniae; experiment: Antibacterial activity against Klebsiella pneumoniae ATCC 13883 incubated for 18 hrs by resazurin dye based broth microdilution method; type: functional
[18] = system: Mycolicibacterium smegmatis; experiment: Antimycobacterial activity against Mycobacterium smegmatis ATCC607 infected in mouse J774 cells assessed as reduction in intracellular bacterial count at 2 times MIC measured after 24 hrs relative to control; type: functional; set-up: scale not given: the % may be the effect or the level left
[19] = system: Mycobacterium tuberculosis; experiment: Antimycobacterial activity against Mycobacterium tuberculosis H37Rv ATCC 25618 assessed as reduction in concentration required to inhibit bacterial growth incubated for 7 days by resazurin dye based two-dimensional micro dilution checkerboard assay in presence of rifampicin relative to control; type: functional; set-up: scale not given: the % may be the effect or the level left; conditions: time 7 day
[20] = system: Mycobacterium tuberculosis; experiment: Additive antimycobacterial activity against Mycobacterium tuberculosis H37Rv ATCC 25618 incubated for 7 days by resazurin dye based two-dimensional micro dilution checkerboard assay in presence of levofloxacin; type: functional; conditions: time 7 day
[21] = system: Mycobacterium tuberculosis; experiment: Antimycobacterial activity against isoniazid, rifampicin, ethambutol and pyrazinamide sensitive Mycobacterium tuberculosis H37Rv ATCC 25618 assessed as inhibition of bacterial growth incubated for 7 days by resazurin dye based colorimetric method analysis; type: functional; conditions: H37Rv ATCC 25618, 168 h, time 7 day
[22] = Cytotoxicity against human HepG2 cells assessed as reduction in cell population incubated for 48 hrs by MTT assay; type: toxicity, cell-based
[23] = system: Mycobacterium tuberculosis; experiment: Antimycobacterial activity against Mycobacterium tuberculosis H37Rv ATCC 25618 assessed as induction of morphological changes by measuring extrusion of cytosolic material at MIC incubated for 96 hrs by TEM analysis; type: functional, organism-based
[24] = system: Mycolicibacterium smegmatis; experiment: Antimycobacterial activity against Mycobacterium smegmatis ATCC607 assessed as reduction in bacterial viability at 16 uM measured after 72 hrs by time kill assay in presence of rifampicin relative to control; type: functional
[25] = system: Mycobacterium tuberculosis; experiment: Additive antimycobacterial activity against Mycobacterium tuberculosis H37Rv ATCC 25618 assessed as fractional inhibitory concentration index incubated for 7 days by resazurin dye based two-dimensional micro dilution checkerboard assay in presence of amikacin; type: functional; conditions: time 7 day
[26] = system: Mycobacterium tuberculosis; experiment: Additive antimycobacterial activity against Mycobacterium tuberculosis H37Rv ATCC 25618 incubated for 7 days by resazurin dye based two-dimensional micro dilution checkerboard assay in presence of ethambutol; type: functional; conditions: time 7 day
[27] = Cytotoxicity against mouse J774.A1 cells assessed as reduction in cell population incubated for 48 hrs by MTT assay; type: toxicity, cell-based
[28] = system: Mycolicibacterium smegmatis; experiment: Antimycobacterial activity against Mycobacterium smegmatis ATCC607 infected in mouse J774 cells assessed as reduction in intracellular bacterial count at 32 uM measured after 6 hrs relative to control; type: functional; set-up: scale not given: the % may be the effect or the level left
[29] = system: Mycolicibacterium smegmatis; experiment: Intracellular antimycobacterial activity against Mycobacterium smegmatis ATCC607 infected in mouse J774 cells assessed as reduction in bacterial count at 16 to 32 uM measured after 24 hrs; type: functional, organism-based; conditions: dose 16-32 µM
[30] = Cytotoxicity against African green monkey Vero cells assessed as reduction in cell population incubated for 48 hrs by MTT assay; type: toxicity, cell-based; conditions: chlorocebus sabaeus
[31] = system: Mycolicibacterium smegmatis; experiment: Antimycobacterial activity against Mycobacterium smegmatis ATCC607 assessed as reduction in bacterial viability at 16 uM incubated for 24 hrs by time kill assay relative to control; type: functional
[32] = system: Mycobacterium tuberculosis; experiment: Antimycobacterial activity against Mycobacterium tuberculosis H37Rv ATCC 25618 incubated for 7 days by resazurin dye based two-dimensional micro dilution checkerboard assay in presence of rifampicin; type: functional; conditions: time 7 day
[33] = system: Mycobacterium tuberculosis; experiment: Additive antimycobacterial activity against Mycobacterium tuberculosis H37Rv ATCC 25618 assessed as fractional inhibitory concentration index incubated for […] by micro dilution checkerboard assay in presence of rifampicin; type: functional
[34] = system: Mycobacterium tuberculosis; experiment: Antimycobacterial activity against Mycobacterium tuberculosis H37Rv ATCC 25618 assessed as fractional inhibitory concentration index incubated for 7 days by resazurin dye based two-dimensional micro dilution checkerboard assay in presence of rifampicin; type: functional; conditions: time 7 day
[35] = system: Mycobacterium tuberculosis; experiment: Antimycobacterial activity against Mycobacterium tuberculosis H37Rv ATCC 25618 incubated for 7 days by resazurin dye based two-dimensional micro dilution checkerboard assay in presence of 1-(benzyloxy)heptadecan-2-amine; type: functional; conditions: time 7 day
[36] = system: Mycobacterium tuberculosis; experiment: Antimycobacterial activity against Mycobacterium tuberculosis H37Rv ATCC 25618 incubated for 7 days by resazurin dye based two-dimensional micro dilution checkerboard assay in presence of 1-((3,4,5-trimethoxybenzyl)oxy)heptadecan-2-amine; type: functional; conditions: time 7 day
[37] = system: Mycolicibacterium smegmatis; experiment: Antimycobacterial activity against Mycobacterium smegmatis ATCC607 assessed as reduction in bacterial viability at 19.5 uM incubated for 24 hrs by time kill assay relative to control; type: functional
[38] = system: Mycolicibacterium smegmatis; experiment: Antimycobacterial activity against Mycobacterium smegmatis ATCC607 infected in mouse J774 cells assessed as reduction in intracellular bacterial count at 19.5 to 39 uM measured after 24 hrs; type: functional, organism-based; conditions: dose 19.5-39 µM
[39] = system: Mycobacterium tuberculosis; experiment: Antimycobacterial activity against Mycobacterium tuberculosis H37Rv ATCC 25618 assessed as fractional inhibitory concentration incubated for 7 days in presence of 2-aminoheptadecan-1-ol by resazurin dye based two-dimensional micro dilution checkerboard assay; type: functional; conditions: time 7 day

Structure (SMILES) | fractional inhibitory concentration index (FICI) [1] | FIC [3] | FIC [4] | fractional inhibitory concentration index (FICI) [6] | Activity [7] | FIC [8] | MIC [10] [µM] | fractional inhibitory concentration index (FICI) [11] | MIC [12] [µM] | fractional inhibitory concentration index (FICI) [13] | Activity [14] | Ratio [15] | MIC [17] [µM] | FIC [20] | MIC [21] | CC50 at 48 h [22] [µM] | fractional inhibitory concentration index (FICI) [25] | FIC [26] | CC50 at 48 h [27] [µM] | CC50 at 48 h [30] [µM] | other results
CCCCCCCCCCCCCCCC(N)COCc1cc(OC)c(OC)c(OC)c1 (stereo not drawn) | 0.5 | 0.125 | 0.126 | 0.63 | Active | 0.25 | 16 (≈ 7.23 µg/mL) | 0.63 | ≤ 4 | 0.63 | Active | 45 | 512 (≈ 231 µg/mL) | 0.127 | 8 µM (≈ 3.61 µg/mL) | 149 | 0.63 | 0.013 | 120 | 17.7 | Activity [2]: Tde; Activity [5]: >1 log10CFU/ml; Activity [9]: 12.2%; Activity [16]: 1.9 log10CFU/ml; Activity [18]: 33.3%; Activity [19]: 75%; Activity [23]: Active; Activity [24]: >99.9%; Activity [28]: 6.2%; Activity [29]: Active; Activity [31]: 99.9%
CCCCCCCCCCCCCCCC(N)COCc1ccccc1 (stereo not drawn) | – | 0.25 | 0.5 | 1 | – | – | 16 (≈ 5.79 µg/mL) | 0.75 | 16 (≈ 5.79 µg/mL) | 0.75 | – | 80 | 128 (≈ 46.3 µg/mL) | 0.25 | 4.5 µM (≈ 1.63 µg/mL) | 99.2 | 0.75 | 0.5 | 5.94 | 42.2 | FIC [32]: 0.5; fractional inhibitory concentration index (FICI) [33]: 0.56; Activity [24]: >99.9%; fractional inhibitory concentration index (FICI) [34]: 0.56; Activity [31]: 24.56%
CCCCCCCCCCCCCCCC(N)CO (stereo not drawn) | 0.38 | 0.25 | 0.5 | 0.63 | – | 0.25 | 128 (≈ 34.8 µg/mL) | 0.75 | 16 (≈ 4.34 µg/mL) | 0.53 | – | 237 | 512 (≈ 139 µg/mL) | 0.5 | 1.52 µM (≈ 0.413 µg/mL) | 129 | 0.56 | 0.5 | 10.2 | 125 | Activity [19]: 87.5%
CO[C@H]1/C=C/O[C@@]2(C)Oc3c(C)c(O)c4c(O)c(c(/C=N/N5CCN(C)CC5)c(O)c4c3C2=O)NC(=O)/C(C)=C\C=C\[C@H](C)[C@H](O)[C@@H](C)[C@@H](O)[C@@H](C)[C@H](OC(C)=O)[C@@H]1C [RIFAMPIN] | – | – | – | – | – | – | 19.5 (≈ 16 µg/mL) | – | – | – | – | – | – | – | 0.04 µM and 0.03 µg/mL | – | – | – | – | – | FIC [35]: 0.063; FIC [36]: 0.25; Activity [37]: 27%; Activity [38]: Active
CC[C@@H](CO)NCCN[C@@H](CC)CO [ETHAMBUTOL] | – | – | – | – | Active | – | – | – | – | – | Active | 100 | – | – | 3.6 µM and 1 µg/mL | > 1440 | – | – | > 1440 | 641 | FIC [35]: 0.5; FIC [36]: 0.5; FIC [39]: 0.125; Activity [23]: Active
